The values below come from patent publication US20250084094A1 (Vertex Pharmaceuticals Incorporated, priority 2021, published 2025).

Where only a bound is given, the exact number is not on record here.

This experiment deals with T1, APOL1 (Homo sapiens, UniProt O14791).
T1 sequence (O14791 1-398 S342G/I384M): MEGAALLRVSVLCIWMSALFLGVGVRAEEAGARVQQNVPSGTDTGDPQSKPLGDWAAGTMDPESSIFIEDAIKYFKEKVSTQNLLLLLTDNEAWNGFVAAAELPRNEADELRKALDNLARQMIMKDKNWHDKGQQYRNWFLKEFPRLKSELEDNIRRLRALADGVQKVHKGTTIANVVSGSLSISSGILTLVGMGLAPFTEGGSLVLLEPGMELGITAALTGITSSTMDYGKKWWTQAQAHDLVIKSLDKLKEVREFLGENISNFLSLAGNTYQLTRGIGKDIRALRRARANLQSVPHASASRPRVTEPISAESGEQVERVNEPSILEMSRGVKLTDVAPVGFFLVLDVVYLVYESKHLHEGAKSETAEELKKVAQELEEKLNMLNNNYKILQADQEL
Kind of experiment: MultiTox-Fluor Multiplex Cytotoxicity Assay in tet-inducible APOL1 T-REx-HEK293 cells. The class given is cell-based. The settings on record: tet-inducible transgenic APOL1 T-REx-HEK293 cell lines, 50 ng/mL tet, 24 hours, ratio of dead to live cells; read-out: IP50 (nM) (i.e., IC50 for cell proliferation). The protocol: The MultiTox-Fluor Multiplex Cytotoxicity Assay is a single-reagent-addition, homogeneous, fluorescence assay that measures the number of live and dead cells simultaneously in culture wells. The assay measures cell viability and cytotoxicity by detecting two distinct protease activities. The live-cell protease activity is restricted to intact viable cells and is measured using a fluorogenic, cell-permeant peptide glycyl-phenylalanylamino fluorocoumarin (GF-AFC) substrate. The substrate enters intact cells, where it is cleaved to generate a fluorescent signal proportional to the number of living cells. […] A second, cell-impermeant, fluorogenic peptide substrate (bis-AAF-R110 Substrate) is used to measure dead-cell protease that has been released from cells that have lost membrane integrity. A ratio of dead to live cells is used to normalize data.
Briefly, the tet-inducible transgenic APOL1 T-REx-HEK293 cell lines were incubated with 50 ng/mL tet to induce APOL1 in the presence of 3-(2-(4-fluorophenyl)-1H-indol-3-yl)-N-((3S,4R)-4-hydroxy-2-oxopyrrolidin-3-yl)propenamide at 10.03, 3.24, 1.13, 0.356, 0.129, 0.042, 0.129, 0.0045, 0.0015, 0.0005 μM in duplicate for 24 hours in a humidified 37° C. incubator. The MultiTox reagent was added to each well and placed back in the incubator for an additional 30 minutes. The plate was read on the EnVision plate reader. A ratio of dead to live cells was used to normalize, and data was imported, analyzed, and fit using Genedata Screener (Basel, Switzerland) software. Data was normalized using percent of control, no tet (100% viability), and 50 ng/mL tet treated (0% viability),and fit using Smart Fit. The reagents, methods, and complete protocol for the MultiTox assay are described below.
Human embryonic kidney (HEK293) cell lines containing a tet-inducible expression system (T-REx™; Invitrogen, Carlsbad, CA) and Adeno-associated virus site 1 pAAVS1-Puro-APOL1 G0 or pAAVS1-Puro-APOL1 G1 or pAAVS1-Puro-APOL1 G2 Clones G0 DC2.13, Gi DC3.25, and G2 DC4.44 were grown in a T-225 flask at ˜90% confluency in cell growth media (DMEM, 10% Tet-free FBS, 2 mM L-glutamine, 100 Units/mL penicillin-streptomycin, 5 μg/mL blasticidin S HCl, 1 μg/mL puromycin dihydrochloride). Cells were washed with DPBS and then trypsinized to dissociate from the flask. Media was used to quench the trypsin, cells were then pelleted at 200 g and resuspended in fresh cell assay media (DMEM, 2% Tet-free FBS, 2 mM L-glutamine, 100 Units/mL penicillin-streptomycin). Cells were counted and diluted to 1.17×10^6 cells/mL. 20 μL of cells (23,400/well) were dispensed in every well of a 384-well Poly-D-Lysine coated plate using the Multidrop dispenser. The plates were then incubated at room temperature for one hour.
Tetracycline is needed to induce APOL1 expression. 1 mg/mL tet stock in water was diluted to 250 ng/mL (5×) in cell assay media. 60 μL of cell assay media (no tet control) was dispensed in columns 1 and 24, and 60 μL of 5× tet in 384-PP-round bottom plate was dispensed in columns 2 to 23 with the Multidrop dispenser.
Assay ready plates from the Global Compound Archive were ordered using template 384_APOLICell_DR10n2_50 uM_v3. Compounds were dispensed at 200 nL in DMSO. The final top concentration was 10 μM with a 10 point 3-fold dilution in duplicate in the MultiTox assay.
20 μL was transferred from the 5× tet plate to the ARP and mixed, then 5 μL of 5× tet and the compounds were transferred to the cell plate and mixed using the Bravo. The cell plate was placed in the humidified 37° C. 5% CO2 incubator for 24 hours.
The MultiTox-Fluor Multiplex Cytotoxicity Assay was performed in accordance with the manufacturer's protocol. After cells were incubated with tet and compound for 24 hours, 25 μL of 1x MultiTox reagent was added to each well using the Multidrop dispenser; the plates were placed on a plate shaker (600 rpm) for 2 minutes, then centrifuged briefly and placed back in the 37° C. incubator for 30 minutes. […]
For the compound `C[C@H]1C[C@@]2(C[C@@H](c3cn(C)nn3)N1)C(=O)Nc1ccc(Cl)cc12` [Compound 35, (2′S,3S,6′S)-5-chloro-2′-methyl-6′-(1-methyltriazol-4-yl)spiro[indoline-3,4′-piperidine]-2-one], the IC50 was less than 50 nM. The same measure for `C[C@H]1C[C@@]2(C[C@@H](c3cn(C)nn3)N1)C(=O)Nc1cc(Cl)ccc12` [Compound 36, (2′S,3S,6′S)-6-chloro-2′-methyl-6′-(1-methyltriazol-4-yl)spiro[indoline-3,4′-piperidine]-2-one]: less than 50 nM; for `C[C@H]1C[C@@]2(C[C@@H](c3cn(C)nn3)N1)C(=O)Nc1ccc(C(F)(F)F)cc12` [Compound 37, (2′S,3S,6′S)-2′-methyl-6′-(1-methyltriazol-4-yl)-5-(trifluoromethyl)spiro[indoline-3,4′-piperidine]-2-one]: less than 50 nM. As for `C[C@H]1C[C@@]2(C[C@@H](c3cn(C)nn3)N1)C(=O)Nc1cc(C(F)(F)F)ccc12` [Compound 38, (2′S,3S,6′S)-2′-methyl-6′-(1-methyltriazol-4-yl)-6-(trifluoromethyl)spiro[indoline-3,4′-piperidine]-2-one], the IC50 is less than 50 nM.

On to `C[C@H]1CC2(C[C@@H](c3cn(C)nn3)N1)OC(C(N)=O)c1cc(Cl)ccc12` (stereo partly drawn) [Compound 39, (2′S,6′S)-6-chloro-2′-methyl-6′-(1-methyltriazol-4-yl)spiro[1H-isobenzofuran-3,4′-piperidine]-1-carboxamide], for which the IC50 was less than 50 nM. On to `C[C@H]1CC2(C[C@@H](c3cn(C)nn3)N1)OC(C(N)=O)c1ccc(Cl)cc12` (stereo partly drawn) [Compound 41, (2′S,6′S)-5-chloro-2′-methyl-6′-(1-methyltriazol-4-yl)spiro[1H-isobenzofuran-3,4′-piperidine]-1-carboxamide], for which the IC50 was less than 50 nM.
